Test results reported in ChEMBL document CHEMBL1201862, “PubChem BioAssay data set” (2004).
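A five-concentration, 48-hour dose response in 96-well plates underlies each endpoint, interpolated linearly between surrounding concentrations. The concentration for 50% growth inhibition is given as GI50.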 Calls of active or inactive are those of the source. Rule as the data show it: active = GI50 up to about 1.1 µM and inactive = higher.

Columns and labels:
Assay in all cases: inhibition of tumour cell growth, NCI panel, 48 h
[1] = test system: SW-620
[2] = test system: K562
[3] = test system: SK-MEL-2
[4] = test system: RPMI-8226
[5] = test system: HOP-62
[6] = test system: NCI-H23
[7] = test system: IGROV-1
[8] = test system: HCT-15
[9] = test system: SF-539
[10] = test system: HCC 2998
[11] = test system: MDA-N
[12] = test system: HL-60
[13] = test system: SK-OV-3
[14] = test system: UO-31
[15] = test system: OVCAR-5
[16] = test system: MDA-MB-231
[17] = test system: NCI/ADR-RES
[18] = test system: U-251
[19] = test system: NCI-H226
[20] = test system: A498

Row | SMILES | GI50 [1] | GI50 [2] | GI50 [3] | GI50 [4] | GI50 [5] | GI50 [6] | GI50 [7] | GI50 [8] | GI50 [9] | GI50 [10] | GI50 [11] | GI50 [12] | GI50 [13] | GI50 [14] | GI50 [15] | GI50 [16] | GI50 [17] | GI50 [18] | GI50 [19] | GI50 [20]
1 | Cn1c2ccccc2c(=O)c2ccc(Cl)cc21 | > 10 µM (inactive) | > 10 µM (inactive) | > 10 µM (inactive) | > 10 µM (inactive) | > 10 µM (inactive) | > 10 µM (inactive) | > 10 µM (inactive) | > 10 µM | 2.51 µM (inactive) | > 10 µM (inactive) | > 10 µM (inactive) | 9.95 µM (inactive) | 6.71 µM (inactive) |  |  |  |  |  |  | 
2 | CCOC(=O)c1nc2ccccc2nc1Nc1cc(OC)c(OC)c(OC)c1 |  | > 100 µM (inactive) | > 100 µM (inactive) | > 100 µM (inactive) | > 100 µM (inactive) | > 100 µM (inactive) | > 100 µM (inactive) | > 100 µM | > 100 µM (inactive) | > 100 µM (inactive) | > 100 µM (inactive) | > 100 µM (inactive) | > 100 µM (inactive) | > 100 µM (inactive) | > 100 µM (inactive) | > 100 µM (inactive) | > 100 µM (inactive) | > 100 µM (inactive) |  | 
3 | O=C(OCc1ccccc1CN1CCOCC1)c1ccc(Br)cc1 | > 100 µM (inactive) | 0.0209 µM (active) | 36 µM (inactive) | 22.1 µM (inactive) | 72.3 µM (inactive) | 39.4 µM (inactive) | 47.8 µM (inactive) | 57.1 µM | > 100 µM (inactive) | 46.5 µM (inactive) |  |  | > 100 µM (inactive) | 95.7 µM (inactive) | 73.1 µM (inactive) | 71.4 µM (inactive) | 42 µM (inactive) | 88.7 µM (inactive) | > 100 µM (inactive) | > 100 µM (inactive)
4 | O=[N+]([O-])c1cccc(-c2oc(/C=N/c3ccccc3)c([N+](=O)[O-])c2-c2cccc([N+](=O)[O-])c2)c1 | > 100 µM (inactive) | > 100 µM (inactive) | > 100 µM (inactive) | > 100 µM (inactive) | > 100 µM (inactive) | > 100 µM (inactive) | > 100 µM (inactive) |  | > 100 µM (inactive) | > 100 µM (inactive) |  | > 100 µM (inactive) | > 100 µM (inactive) | > 100 µM (inactive) | > 100 µM (inactive) |  |  | > 100 µM (inactive) | > 100 µM (inactive) | > 100 µM (inactive)
5 | Cc1ccc([S+]([O-])c2ccccc2[N+](=O)[O-])cc1 (stereo unspecified) | > 100 µM (inactive) | 64.4 µM (inactive) | > 100 µM (inactive) | 52.8 µM (inactive) | > 100 µM (inactive) | 32.6 µM (inactive) | 65.9 µM (inactive) | 65 µM | 58.5 µM (inactive) | 78.9 µM (inactive) |  | 29.1 µM (inactive) | > 100 µM (inactive) | 51.2 µM (inactive) | 72.1 µM (inactive) |  |  | 48.8 µM (inactive) | 30.5 µM (inactive) | 28.1 µM (inactive)
6 | O=S(=O)(NC1CCCCC1)c1ccc2c(c1)OCCOCCOCCOCCO2 | > 100 µM (inactive) | > 100 µM (inactive) |  | > 100 µM (inactive) | > 100 µM (inactive) | > 100 µM (inactive) | > 100 µM (inactive) | > 100 µM | > 100 µM (inactive) | > 100 µM (inactive) | > 100 µM (inactive) | > 100 µM (inactive) | > 100 µM (inactive) | > 100 µM (inactive) |  | > 100 µM (inactive) |  |  | > 100 µM (inactive) | > 100 µM (inactive)
7 | COc1ccc(-c2cc(-c3cc(F)c(Cl)cc3Cl)on2)cc1OC | 7.93 µM (inactive) | 3.96 µM (inactive) | 17.1 µM (inactive) | 34.7 µM (inactive) | 15.6 µM (inactive) | 29.9 µM (inactive) | 68.1 µM (inactive) | 5.42 µM | 4.61 µM (inactive) |  | 2.44 µM (inactive) | 4.48 µM (inactive) | 44.6 µM (inactive) | 95.9 µM (inactive) | > 100 µM (inactive) | 20.1 µM (inactive) | 11.4 µM (inactive) | 25.9 µM (inactive) | 13.3 µM (inactive) | 
8 | Ic1ncnc2c1ncn2C1CCCO1 (stereo unspecified) | > 100 µM (inactive) | > 100 µM (inactive) | > 100 µM (inactive) | > 100 µM (inactive) | > 100 µM (inactive) | > 100 µM (inactive) | > 100 µM (inactive) | > 100 µM | > 100 µM (inactive) | > 100 µM (inactive) |  | > 100 µM (inactive) | > 100 µM (inactive) | > 100 µM (inactive) | > 100 µM (inactive) |  |  | > 100 µM (inactive) | > 100 µM (inactive) | > 100 µM (inactive)
9 | OC1OC2COC(c3ccccc3)OC2C(O)C1O (stereo unspecified) | > 100 µM (inactive) | > 100 µM (inactive) | > 100 µM (inactive) | > 100 µM (inactive) | > 100 µM (inactive) | > 100 µM (inactive) | > 100 µM (inactive) | > 100 µM | > 100 µM (inactive) | > 100 µM (inactive) |  | > 100 µM (inactive) | > 100 µM (inactive) | > 100 µM (inactive) | > 100 µM (inactive) |  |  | > 100 µM (inactive) | > 100 µM (inactive) | > 100 µM (inactive)
10 | CCOc1cc(NC(C)=O)ccc1C(=O)NNS(=O)(=O)c1ccc(NC(C)=O)cc1 | 39.2 µM (inactive) | 38 µM (inactive) | 28.8 µM (inactive) | 31.7 µM (inactive) | 63.5 µM (inactive) | 97.3 µM (inactive) | 43.9 µM (inactive) | 53.6 µM | 33.2 µM (inactive) | > 100 µM (inactive) | 16.7 µM (inactive) | 22.8 µM (inactive) | 50.9 µM (inactive) | 62.4 µM (inactive) | > 100 µM (inactive) |  | 69.8 µM (inactive) |  | 25.2 µM (inactive) | 51.8 µM (inactive)
11 | CCOc1ccccc1NC(=O)CCC(=O)NN | > 100 µM (inactive) | > 100 µM (inactive) | > 100 µM (inactive) | 65.6 µM (inactive) | > 100 µM (inactive) | > 100 µM (inactive) | > 100 µM (inactive) | > 100 µM | > 100 µM (inactive) | > 100 µM (inactive) |  | > 100 µM (inactive) | > 100 µM (inactive) | > 100 µM (inactive) | > 100 µM (inactive) |  |  | > 100 µM (inactive) | > 100 µM (inactive) | > 100 µM (inactive)
12 | O=C1CCC2(c3ccc(Cl)cc3)Nc3ccncc3N12 (stereo unspecified) | > 10 µM (inactive) | > 10 µM (inactive) | > 10 µM (inactive) |  |  | > 10 µM (inactive) | > 10 µM (inactive) | > 10 µM | > 10 µM (inactive) |  | > 10 µM (inactive) | > 10 µM (inactive) | 5.52 µM (inactive) | > 10 µM (inactive) | > 10 µM (inactive) | 0.00507 µM (active) | > 10 µM (inactive) | > 10 µM (inactive) | > 10 µM (inactive) | 
13 | O=C(Cn1c(=O)oc2ccc(C(=O)c3cccc(Cl)c3)cc21)c1ccccc1 | 65.6 µM (inactive) | 57.8 µM (inactive) | 67.3 µM (inactive) | > 100 µM (inactive) | > 100 µM (inactive) | > 100 µM (inactive) | > 100 µM (inactive) | 41.2 µM | > 100 µM (inactive) | 20.1 µM (inactive) |  | 19.3 µM (inactive) | 42.1 µM (inactive) | 99.8 µM (inactive) | > 100 µM (inactive) | > 100 µM (inactive) | > 100 µM (inactive) | > 100 µM (inactive) | 40.9 µM (inactive) | 33 µM (inactive)
14 | CC(=O)OCC(C)(COC(C)=O)N1C(=O)C2C3c4ccccc4C(c4ccccc43)C2C1=O (stereo unspecified) | > 100 µM (inactive) | > 100 µM (inactive) |  | > 100 µM (inactive) |  | > 100 µM (inactive) | > 100 µM (inactive) | > 100 µM | > 100 µM (inactive) |  | 28.1 µM (inactive) | > 100 µM (inactive) | > 100 µM (inactive) | > 100 µM (inactive) | > 100 µM (inactive) | > 100 µM (inactive) |  | > 100 µM (inactive) | > 100 µM (inactive) | > 100 µM (inactive)
15 | CC(C)=CC(=O)C/C(=N\NC(N)=S)C(=O)Nc1ccc(Cl)cc1 | > 100 µM (inactive) | > 100 µM (inactive) | > 100 µM (inactive) | > 100 µM (inactive) |  | > 100 µM (inactive) | > 100 µM (inactive) | > 100 µM | > 100 µM (inactive) | > 100 µM (inactive) |  | > 100 µM (inactive) | > 100 µM (inactive) | > 100 µM (inactive) | > 100 µM (inactive) |  |  | > 100 µM (inactive) | > 100 µM (inactive) | > 100 µM (inactive)
16 | CN(C)c1ccc(/C=C2\N=C(c3ccccc3)N(c3nc4ccc(Sc5ccccc5)cc4[nH]3)C2=O)cc1 | 34.6 µM (inactive) | 26.4 µM (inactive) | 20.8 µM (inactive) | 24.8 µM (inactive) | 33.1 µM (inactive) | 47.1 µM (inactive) | 61.5 µM (inactive) | 36.5 µM |  | 17.4 µM (inactive) |  | 6.61 µM (inactive) | 13.7 µM (inactive) | 59.3 µM (inactive) | 41.8 µM (inactive) | 49.1 µM (inactive) | 25.9 µM (inactive) | 47.9 µM (inactive) |  | 37.6 µM (inactive)
17 | N#Cc1nc(C(CO)N(Cc2ccccc2)C(=O)O)oc1N (stereo unspecified) |  | > 100 µM (inactive) | > 100 µM (inactive) | > 100 µM (inactive) | > 100 µM (inactive) | > 100 µM (inactive) | > 100 µM (inactive) | > 100 µM | > 100 µM (inactive) | > 100 µM (inactive) |  | > 100 µM (inactive) | > 100 µM (inactive) | > 100 µM (inactive) | > 100 µM (inactive) | > 100 µM (inactive) | > 100 µM (inactive) | > 100 µM (inactive) | > 100 µM (inactive) | > 100 µM (inactive)
